Reference: patent US9458173B2, “Amides of 2-amino-4-arylthiazole compounds and their salts” (GLENMARK PHARMACEUTICALS S.A., priority 2012, dated 2016)
In brackets after ≈: the same amount, converted by molar mass. Like-named read-outs stand apart in the source and are kept apart here.

What was measured:
Type in all cases: physicochemical
[1] = Hygroscopicity study, moisture content by Karl Fischer method; conditions: for moisture content, initial value: before exposure to humidity; for moisture content increase: 25° C., 48 hrs
Description: Hygroscopicity study was performed under the following conditions: The material was exposed to relative humidity (for example 60%, 80%, 90%) at 25° C. condition. The material was thinly spread in dried and pre-weighed Petri plate. The plate was exposed to the relative humidity conditions at 25° C. The Petri plate was withdrawn at regular intervals and weighed. Withdrawn samples were tested for description and moisture content by Karl Fischer method.

[2] = Dissolution studies in suspension form; conditions: suspension: 10 mg active, Kollidon VA 64 40 mg, SLS 20 mg, purified water; batches 1A, 2A, 3A
Description: Suspension of compound of formula (II) and its salts with same composition was prepared using conventional homogenization technique. The % drug release was determined by comparing with 10 mg equivalent suspension (after sonication).

[3] = Solubility studies, shake flask method with HPLC quantification; conditions: 37° C., 200 rpm, about 15 minutes; for solubility: thermodynamic from solid, read-out: Solubility (Conc.)
Description: • Shake flask method was used to determine the solubility of compound in various bio-relevant media of different pH and quantification is done using HPLC method. II. Experimental:
Following bio-relevant media and water were selected to study the solubility behaviour. • i. FaSSIF (Fasted state simulated intestinal fluid) of pH 6.5 • ii. FeSSIF (Fed state simulated intestinal fluid) of pH 5.0 • iii. Water.
Procedure: Test substance (1 mg) was taken in a test tube and medium [FaSSIF (pH 6.5) or FeSSIF (pH 5.0) or water] was added in the increment of 1 ml with shaking. After completion of addition of 10 ml of media, test tubes containing sample solution were put on a mechanical shaker set at 37° C. and 200 rpm for shaking up to about 15 minutes. After shaking, the content of each flask, it was filtered through […] filter. The filtered solution was analysed using HPLC for quantification. A sample solution of 1 mg in 10 ml of DMSO was used as reference standard for quantifying dissolved test substance in each media. The solubility in each media is expressed as μg/ml (Table-10).

[4] = Stability studies of salts under storage, degradation products by HPLC
Description: The salts of compound of formula II were stored under conditions as shown in Table 11 and a total amount of degradation products (related substances) and single maximum impurity formed during storage was estimated according to following protocol:
Apparatus: A High Performance Liquid Chromatograph equipped with quaternary gradient pumps, variable wavelength UV detector attached with data recorder and Integrator software or equivalent.
Column: Phenomenex Prodigy, 250 mm×4.6 mm, 5.0 or equivalent
Mobile phase: A: Buffer B: Acetonitrile (for sodium salt), acetonitrile:methanol (6:4) for potassium salt
Buffer: 0.1% Formic acid in water
Detection wavelength: UV 265 nm
Column temperature: 40° C.
10 mg of compound was weighed and transferred it into a 20 mL volumetric flask. Dimethylsulfoxide was added and it was sonicated to dissolve. The diluent was added to make up the solution to the mark of the flask.
The equal volumes of blank (diluent) and test solution were separately injected into the liquid chromatograph. The responses were recorded eliminating the peaks due to blank and the chromatographic purity by area was calculated by normalization method.
The salts of the compound of formula II were stored under conditions as shown in below table and a total amount of degradation products (related substances) as well as single maximum impurity formed during storage was estimated by HPLC. The material was packed in inner clear polythene bag under nitrogen lined with black polythene bag, covered with triple laminated aluminium bag placed in HDPE drum and subjected to the conditions mentioned in the table 11.

[5] = storage condition 1: 25 ± 2° C., 60 ± 5% RH, 0 months
[6] = storage condition 1: 25 ± 2° C., 60 ± 5% RH, 1 month
[7] = storage condition 1: 25 ± 2° C., 60 ± 5% RH, 2 months
[8] = storage condition 1: 25 ± 2° C., 60 ± 5% RH, 3 months
[9] = storage condition 1: 25 ± 2° C., 60 ± 5% RH, 6 months
[10] = storage condition 1: 25 ± 2° C., 60 ± 5% RH, 9 months
[11] = storage condition 2: 30 ± 2° C., 65 ± 5% RH, 0 months
[12] = storage condition 2: 30 ± 2° C., 65 ± 5% RH, 6 months
[13] = storage condition 3: 40 ± 2° C., 75 ± 5% RH, 0 months
[14] = storage condition 3: 40 ± 2° C., 75 ± 5% RH, 1 month
[15] = storage condition 3: 40 ± 2° C., 75 ± 5% RH, 2 months
[16] = storage condition 3: 40 ± 2° C., 75 ± 5% RH, 3 months
[17] = storage condition 3: 40 ± 2° C., 75 ± 5% RH, 6 months
[18] = storage condition 2: 30 ± 2° C., 65 ± 5% RH, 1 month
[19] = storage condition 2: 30 ± 2° C., 65 ± 5% RH, 2 months
[20] = storage condition 2: 30 ± 2° C., 65 ± 5% RH, 3 months

| % drug release after 15 minutes [2] [%] | Related substances [4, 5] [%] | single max. impurity [4, 5] [%] | Related substances [4, 6] [%] | single max. impurity [4, 6] [%] | Related substances [4, 7] [%] | single max. impurity [4, 7] [%] | Related substances [4, 8] [%] | single max. impurity [4, 8] [%] | Related substances [4, 9] [%] | single max. impurity [4, 9] [%] | Related substances [4, 10] [%] | single max. impurity [4, 10] [%] | Related substances [4, 11] [%] | single max. impurity [4, 11] [%] | Related substances [4, 12] [%] | single max. impurity [4, 12] [%] | Related substances [4, 13] [%] | single max. impurity [4, 13] [%] | Related substances [4, 14] [%] | SMILES | other results |
| --- | --- | --- | --- | --- | --- | --- | --- | --- | --- | --- | --- | --- | --- | --- | --- | --- | --- | --- | --- | --- | --- |
| – | – | – | – | – | – | – | – | – | – | – | – | – | – | – | – | – | – | – | – | Cn1c(=O)c2c(CC(=O)Nc3nc(-c4ccc(F)c(C(F)(F)F)c4F)cs3)csc2n(C)c1=O.[K] [Potassium salt of N-{4-[2,4-difluoro-3-(trifluoromethyl)phenyl]-1,3-thiazol-2-yl}-2-(1,3-dimethyl-2,4-dioxo-1,2,3,4-tetrahydrothieno[2,3-d]pyrimidin-5-yl)acetamide in crystalline form] | moisture content after gradual increase ([1]; 48 hrs at 25° C./60% RH): about 3.5%; moisture content after gradual increase ([1]; 48 hrs at 25° C./80% RH): about 6.6%; moisture content after gradual increase ([1]; 48 hrs at 25° C./90% RH): about 16.0%; moisture content, initial value [1]: about 0.80% |
| 0.40 | – | – | – | – | – | – | – | – | – | – | – | – | – | – | – | – | – | – | – | Cn1c(=O)c2c(CC(=O)Nc3nc(-c4ccc(F)c(C(F)(F)F)c4F)cs3)csc2n(C)c1=O [Compound (II), N-{4-[2,4-difluoro-3-(trifluoromethyl)phenyl]-1,3-thiazol-2-yl}-2-(1,3-dimethyl-2,4-dioxo-1,2,3,4-tetrahydrothieno[2,3-d]pyrimidin-5-yl)acetamide] | solubility ([3]; FaSSIF (fasted state simulated intestinal fluid), FaSSIF (pH 6.5)): 0.16 µg/mL (≈ 0.31 µM); solubility ([3]; FeSSIF (fed state simulated intestinal fluid), FeSSIF (pH 5.0)): 0.06 µg/mL (≈ 0.116 µM); solubility ([3]; Water): 0.1 µg/mL (≈ 0.194 µM) |
| 6.3 | 0.44 | 0.26 | 0.45 | 0.27 | 0.31 | 0.19 | 0.43 | 0.26 | 0.35 | 0.21 | 0.35 | 0.21 | 0.44 | 0.26 | 0.51 | 0.31 | 0.44 | 0.26 | 0.44 | Cn1c(=O)c2c(CC(=O)Nc3nc(-c4ccc(F)c(C(F)(F)F)c4F)cs3)csc2n(C)c1=O.[K] [Potassium salt of compound (II), potassium salt of N-{4-[2,4-difluoro-3-(trifluoromethyl)phenyl]-1,3-thiazol-2-yl}-2-(1,3-dimethyl-2,4-dioxo-1,2,3,4-tetrahydrothieno[2,3-d]pyrimidin-5-yl)acetamide] | single max. impurity [4, 14]: 0.27%; Related substances [4, 15]: 0.32%; single max. impurity [4, 15]: 0.20%; Related substances [4, 16]: 0.46%; single max. impurity [4, 16]: 0.28%; Related substances [4, 17]: 0.52%; single max. impurity [4, 17]: 0.32%; Solubility (Conc.) ([3]; FaSSIF (pH 6.5)): 5.91 µg/mL; Solubility (Conc.) ([3]; FeSSIF (pH 5.0)): 5.53 µg/mL; Solubility (Conc.) ([3]; Water): 0.49 µg/mL; moisture content after gradual increase ([1]; 48 hrs at 25° C./60% RH, listed as potassium salt of compound of formula (II)): 3.5%; moisture content after gradual increase ([1]; 48 hrs at 25° C./80% RH, listed as potassium salt of compound of formula (II)): 6.6%; moisture content after gradual increase ([1]; 48 hrs at 25° C./90% RH, listed as potassium salt of compound of formula (II)): 16.0%; moisture content, initial value ([1]; listed as potassium salt of compound of formula (II)): 0.80%; moisture content increase ([1]; relative humidity of 60%): ≤ 2.7%; moisture content increase ([1]; relative humidity of 80%): ≤ 5.8%; moisture content increase ([1]; relative humidity of 90%): ≤ 15.2% |
| 1.2 | 0.22 | 0.05 | 0.28 | 0.06 | 0.36 | 0.10 | 0.38 | 0.11 | 0.51 | 0.23 | 0.75 | 0.39 | 0.22 | 0.05 | 0.71 | 0.35 | 0.22 | 0.05 | 0.54 | Cn1c(=O)c2c(CC(=O)[N-]c3nc(-c4ccc(F)c(C(F)(F)F)c4F)cs3)csc2n(C)c1=O.[Na+] [Sodium salt of compound (II)] | Related substances [4, 18]: 0.30%; single max. impurity [4, 18]: 0.05%; Related substances [4, 19]: 0.40%; single max. impurity [4, 19]: 0.14%; Related substances [4, 20]: 0.47%; single max. impurity [4, 20]: 0.18%; single max. impurity [4, 14]: 0.22%; Related substances [4, 15]: 0.70%; single max. impurity [4, 15]: 0.36%; Related substances [4, 16]: 0.77%; single max. impurity [4, 16]: 0.39%; Related substances [4, 17]: 1.0%; single max. impurity [4, 17]: 0.58%; Solubility (Conc.) ([3]; FaSSIF (pH 6.5)): 1.07 µg/mL; Solubility (Conc.) ([3]; FeSSIF (pH 5.0)): 0.24 µg/mL; Solubility (Conc.) ([3]; Water): 0.13 µg/mL |
